{"source": "patent US8039623B2", "about": "“Inhibitors of serine proteases, particularly HCV NS3-NS4A protease” (Vertex Pharmaceuticals Incorporated, priority 2003, dated 2011)", "target": "HCV NS3-NS4A protease (tNS3 with KK4A) (Hepatitis C virus genotype 1a, UniProt P27958)", "sequence (P27958 1658-1711)": "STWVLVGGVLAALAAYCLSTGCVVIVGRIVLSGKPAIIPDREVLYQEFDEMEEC", "sequence (P27958 1027-1208)": "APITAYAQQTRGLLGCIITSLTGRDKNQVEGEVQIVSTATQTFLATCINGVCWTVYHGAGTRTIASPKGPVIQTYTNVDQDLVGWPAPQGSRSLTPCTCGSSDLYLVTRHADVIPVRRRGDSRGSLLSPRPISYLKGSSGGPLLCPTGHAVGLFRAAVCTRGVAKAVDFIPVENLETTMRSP", "test": "HCV Enzyme Assay Protocol (HPLC microbore separation of 5AB substrate and products)", "assay_type": "biochemical", "settings": "25 nM tNS3, 25 μM KK4A, 25 μM 5AB substrate, 20 min at 30° C.; read-out: Ki range", "description": "HCV Enzyme Assay Protocol\nHPLC Microbore method for separation of 5AB substrate and products\n• NH2-Glu-Asp-Val-Val-(alpha)Abu-Cys-Ser-Met-Ser-Tyr-COOH\nA stock solution of 20 mM 5AB (or concentration of your choice) was made in DMSO w/0.2M DTT. This was stored in aliquots at −20° C.\nBuffer: 50 mM HEPES, pH 7.8; 20% glycerol; 100 mM NaCl\nTotal assay volume was 100 μL\nThe buffer, KK4A, DTT, and tNS3 were combined; distributed 78 μL each into wells of 96 well plate. This was incubated at 30° C. for ˜5-10 min.\n2.5 μL of appropriate concentration of test compound was dissolved in DMSO (DMSO only for control) and added to each well. This was incubated at room temperature for 15 min.\nInitiated reaction by addition of 20 μL of 250 μM 5 AB substrate (25 μM concentration is equivalent or slightly lower than the Km for 5 AB).\nIncubated for 20 min at 30° C.\nTerminated reaction by addition of 25 μL of 10% TFA\nTransferred 120 μL aliquots to HPLC vials\nSeparated SMSY product from substrate and KK4A by the following method:\nMicrobore Separation Method:\nInstrumentation: Agilent 1100\n• Degasser G1322A • Binary pump G1312A • Autosampler G1313A • Column thermostated chamber G1316A • Diode array detector G1315A Column • Phenonex Jupiter; 5 micron C18; 300 angstroms; 150×2 mm; P/O • 00F-4053-B0 • Column thermostat: 40 C • Injection volume: 100 μL • Solvent A=HPLC grade water+0.1% TFA • Solvent B=HPLC grade acetonitrile+0.1% TFA\n• Stop time: 17 min • Post-run time: 10 min.", "data": [{"smiles": "CCC[C@H](NC(=O)[C@@H]1CC2(CN1C(=O)[C@@H](NC(=O)[C@@H](NC(=O)c1cnccn1)C1CCCCC1)C(C)(C)C)SCCCS2)C(=O)NS(=O)(=O)c1ccccc1", "note": "[Compound 1]", "values": [{"measurement": "Ki", "value": "> 5", "unit": "µM"}]}, {"smiles": "CCC[C@H](NC(=O)[C@@H]1CC2(CN1C(=O)[C@@H](NC(=O)[C@@H](NC(=O)c1[nH]c(C)c(C)c1C(C)=O)C1CCCCC1)C(C)(C)C)SCCCS2)C(=O)NS(=O)(=O)c1ccccc1", "note": "[Compound 3]", "values": [{"measurement": "Ki", "value": "1 to 5", "unit": "µM"}]}, {"smiles": "CCC[C@H](NC(=O)[C@@H]1C[C@@H](Oc2ccc(Cl)cn2)CN1C(=O)[C@@H](NC(=O)[C@@H](NC(=O)c1cnccn1)C1CCCCC1)C(C)(C)C)C(=O)NS(=O)(=O)c1ccccc1", "note": "[Compound 2]", "values": [{"measurement": "Ki", "value": "> 5", "unit": "µM"}]}]}
